For assay [1], the system named is Human ES or iPS cells. As to the kind of experiment: Marker gene expression during step-wise differentiation of human pluripotent stem cells to somatotrophs. It is filed as cell-based. Particulars: for GH1 expression: FIG. 6, 7A, 7B, 16; for GH1 expression / PIT1 expression: compared with the control group; for PIT1 expression: FIG. 4, FIG. 5, FIG. 16. As to the method:
Human ES or iPS cells were expanded in E8 media on matrigel.
On day 0, cells were changed to E6 media where BMP4 (5 ng/ml) and SB43152 (10 μM) were added, with daily medium and factors change.
On day 3, BMP4 was removed and the following factors added: FGF8 (100 ng/ml); FGF10 (50 ng/ml); FGF18 (50 ng/ml); Sonic hedgehog (SHH) (100 ng/ml) or SAG (Smoothened Agonist) (100 nM); LDN193189 (250 nM). Media and factors were changed every other day.
Media and factors are changed every other day.
(§1) On day 15, the following factors were used: Retinoic acid (1 μM); Thyroid hormone T3 (10 nM); Dexamethasone (1 μM); cyclic AMP (100 μg/ml); DPN (0.1 nM); Growth Hormone Releasing Hormone (GHRH) (1 μM). Media and factors were changed every other day.
On day 29, the cells entered the maturation phase and could be maintained in the same factors for a variable period ranging from 1-4 weeks. […] They could be subjected to FACS sorting for GHRH in order to obtain a pure cell population of somatotrophs. Cells remained on matrigel for the duration of the protocol.
In order to derive GH cells, the strategy was to first differentiate human pluripotent stem cells to pre-placodal ectoderm and anterior pituitary progenitors. The cells were further differentiated to PROP1 lineage, and then to PIT1 lineage. The cells were then terminally differentiated to GH cells. The step-wise protocol to differentiate pluripotent stem cells into growth hormone secreting cells involved promoting Prop1 expression in anterior pituitary progenitors, activating POU1F1 (PIT1), directing cell differentiation to growth hormone expressing cells. The growth hormone expressing cells were also further matured via prolonged incubation. The key markers to monitor the process of differentiation comprised Prop1, POU1F1 (PIT1), GH and GHRHR.
For example, the first step was to induce non-neural ectoderm by BMP4 and inhibitor of TGF-β/Activin/NODAL pathway (e.g., SB431542). Then the cells were subjected to inhibitor of TGF-β/Activin/NODAL pathway (e.g., SB431542), FGF8/10/18, SHH agonist (e.g., SHH), and a SMAD inhibitor (e.g., LDN 193189) to induce anterior pituitary progenitors, which were characterized by PITX1/2, LHX3/4 and PROP1 expression.
For selective differentiation to somatotrophs, retinoic acid were used to suppress POMC expressed by corticotrophs and to promote GH1 expression which is expressed by somatotrophs. In addition, the corticosteroid (e.g., Dexamethasone) and thyroid hormone (e.g., T3) were added to the medium to inhibit PRL (expressed by lactotroph) and TSH (expressed by thyrotroph), while promoting GH1 expression.

Assay [2] has as its system rodent GSK3β homologs. Particulars: cited from earlier work.
The subject of assay [3] is somatotrophs. As to the kind of experiment: GHRH stimulation of stem-cell-derived GH cell population. Particulars: cell population after growth hormone induction, FIG. 8 lower right panel. It is filed as cell-based, human. As to the method: as §1
On day 29, the cells entered the maturation phase and could be maintained in the same factors for a variable period ranging from 1-4 weeks. Cells at this stage expressed GHRH receptors (GHRHR). They could be subjected to FACS sorting for GHRH in order to obtain a pure cell population of somatotrophs. Cells remained on matrigel for the duration of the protocol.
After this step, the majority population in culture were somatotrophs which expressed the somatotroph marker GH1 and secreted growth hormone in the supernatant. The phenotype of the population is shown FIG. 8. The cell population expressed high amount of GH and GHRHR, and low amount of TSH, PRL and LH. GH expression was further increased upon GHRH stimulation (FIG. 8, lower right panel).

We go through nine molecules from patent US20250376659A1, “DERIVATION OF SOMATOTROPHS FROM STEM CELLS AND USES THEREOF” (MEMORIAL SLOAN-KETTERING CANCER CENTER, priority 2017, published 2025).

Entries after “also recorded” stand apart in the source; their conditions may differ. No end group written: not given here.

For the molecule “Ghrelin: Ghrelin signaling pathway agonist (GSSFLSPEHQRVQQRKESKKPPAKLQPR; ends and bridges not checked; UniProt Q9UBU3 24-51, looked up)”, the GH1 expression result in assay [1] is “promoting”.
`Cc1c[nH]c(-c2cnc(NCCNc3ccc(C#N)cn3)nc2-c2ccc(Cl)cc2Cl)n1` [CHIR99021, 6-(2-(4-(2,4-dichlorophenyl)-5-(4-methyl-1H-imidazol-2-yl)pyrimidin-2-ylamino)ethylamino) nicotinonitrile, reference compound]: the “IC50 values against rodent GSK3β homologs” value in assay [2] is given as “nanomolar”. Further, in assay [1], the PIT1 expression result is given as “induce”.
Turning to `N[C@@H](Cc1cc(I)c(Oc2ccc(O)c(I)c2)c(I)c1)C(=O)O` [T3, reference compound], in assay [1] (FIG. 7C, p-value<0.01 compared with the control groups), the TSH-β expression entry is “significantly reduced”.
Regarding IL 6: interleukin, in assay [1], the PIT1 expression result is given as “increased” and the GH1 expression result was “increased”.
For the molecule `C[C@]12C[C@H](O)[C@H]3[C@@H](CCC4=CC(=O)CC[C@@]43C)[C@@H]1CC[C@@H]2C(=O)CO` [corticosterone, reference compound], in assay [1] (FIG. 7D, p-value<0.01 compared with the control groups), the PRL expression entry is given as “significantly reduced”.
On to “GHRH: Growth Hormone Releasing Hormone, GHRH signaling pathway agonist (YADAIFTNSYRKVLGQLSARKLLQDIMSRQQGESNQERGARARL; ends and bridges not checked; UniProt P01286 32-75, looked up)”, for which the GH1 expression entry in assay [1] is given as “significantly increased; also recorded: further promoted”. Moreover, the “GH expression upon GHRH stimulation” value in assay [3] is given as “increased”.
As for `N#CC(Cc1ccc(O)cc1)c1ccc(O)cc1` (stereo not drawn) [DPN, 2,3-bis(4-hydroxyphenyl) propionitrile, reference compound], in assay [1], the GH1 expression entry is reported as “further promoted”.

B1: FGF8: activator of FGF signaling, dorsalizing agent (protein, UniProt P55075 23-233, looked up)
Fibroblast growth factor 8: QEGPGRGPALGRELASLFRAGREPQGVSQQHVREQSLVTDQLSRRLIRTYQLYSRTSGKHVQVLANKRINAMAEDGDPFAKLIVETDTFGSRVRVRGAETGLYICMNKKGKLIAKSNGKGKDCVFTEIVLENNYTALQNAKYEGWYMAFTRKGRPRKGSKTRQHQREVHFMKRLPRGHHTTEQSLRFEFLNYPPFTRSLRGSQRTWAPEPR
Consider B1, for which the PROP1 expression entry in assay [1] (FIG. 3, FIG. 5) is “maintained”. In assay [1], the PIT1 expression entry is on record as “downregulated”. Moreover, in assay [1] (FIG. 5), the POMC expression result was “upregulated”.

B2: IL10: interleukin (protein, UniProt P22301 19-178, looked up)
Interleukin-10: SPGQGTQSENSCTHFPGNLPNMLRDLRDAFSRVKTFFQMKDQLDNLLLKESLLEDFKGYLGCQALSEMIQFYLEEVMPQAENQDPDIKAHVNSLGENLKTLRLRLRRCHRFLPCENKSKAVEQVKNAFNKLQEKGIYKAMSEFDIFINYIEAYMTMKIRN
Turning to B2, in assay [1], the PIT1 expression result is “increased” and the GH1 expression result is given as “increased”.
